How the values were obtained:
Type in all cases: cell-based, pig
[1] = tested on: boar spermatozoa; test: Sperm viability in vitro (motility, acrosome morphology), Example I; conditions: Exp. 1; after adding active compound and pre-incubation 30 min. at 38° C.
[2] = tested on: boar spermatozoa; test: as above; conditions: Exp. 1
Procedure: Aliquots of 80 μl of the PMN suspension (see, PMN isolation and preparation of PMNs) in TM or TM-s, with either intact or inactivated complement, were transferred to a 96-well polystyrene microtest plate. To each well, 20 μl of sperm suspension (see, preparation of semen samples) was added and the microtest plate was placed in a humidified incubator at 38° C. with 5% CO2 in air. […] The samples were incubated with gentle swirling on a test plate shaker. After 15, 30, 45, 60 or 90 min., samples were quantitatively transferred into tubes containing an equal volume of 40 mg ml^−1 heparin (Sigma) in PBS. The heparin facilitates dissociation of agglutinated PMNs. The samples were thoroughly mixed, left for 15 min., and mixed again. Subsamples of 75 μl were fixed by addition of 25 μl of 2% (v/v) glutaraldehyde (Fluka, Brunschwig chemie, Amsterdam, The Netherlands) in PBS. “Blank” samples, i.e., sperm without PMNs (80 μl TM-s mixed with 20 μl sperm suspension), were incubated in parallel to monitor sperm survival during the treatment. “Reference” samples, i.e., frozen-thawed (killed) semen, were incubated in parallel with the PMNs as a reference for the phagocytotic activity of the PMNs. The frozen-thawed semen was taken from a large stock of semen from one ejaculate and washed 3 times in PBS prior to use.
For evaluation of phagocytosis, wet mounts of the fixed samples were examined with a combination of phase-contrast and fluorescence microscopy (Olympus BH2, Tokyo, Japan) at 400× magnification. The mounts enabled observation and counting of fluorescently labeled spermatozoa inside and outside the phagocytes. By focusing at different levels in the mount, spermatozoa that were located above or below the PMN could be distinguished from those that were phagocytosed. […] Two hundred spermatozoa were evaluated and classified as inside or outside the PMN (i.e., phagocytosed or not phagocytosed). The same fixed mounts were used to assess the acrosome morphology of the non-phagocytosed spermatozoa at the moment of fixation. One hundred cells were classified using phase-contrast microscopy at 400× magnification, as NAR (normal apical ridge), NAR' (slightly altered normal apical ridge), DAR (damaged apical ridge), MAR (missing apical ridge) and LAC (loose acrosomal cap), as described by Pursel et al. (Pursel V G, Schulman L L and Johnson L A, 1978, Distribution and morphology of fresh and frozen-thawed sperm in the reproductive tract of gilts after insemination Biology of Reproduction 19 69-76.)

[3] = tested on: Polymorphonuclear Neutrophils (PMN); test: In vitro phagocytosis of boar sperm by PMN (phagocytosis assay); conditions: for % of phagocytosed sperm: Exp. 1, preincubated 30 min. at 38° C.
Procedure: Tyrode's medium was used as described as “standard Tyrode's medium” in […] et al. ([…], Harrison, R A P, Miller, N G A, Topper, E K, and Woelders, H, 1998, Enhanced Binding of Zona Pellucida Proteins to the Acrosomal Region of Intact Boar Spermatozoa in Response to Fertilizing Conditions: A Flow Cytometric Study. […] Serum was prepared from blood collected from 11 primiparous sows, pooled, and frozen in aliquots at -80° C. Per experiment, 20 ml peripheral blood of a single Dutch Landrace sow (each experiment a different sow) was collected in heparinized vacutainers (Venoject, Omnilabo, Breda, The Netherlands). The peripheral blood was subsequently diluted with an equal volume of phosphate buffered saline (PBS). […] The supernatant, including the mononuclear cells at the interface, was removed. The pellet was resuspended in 2 ml of ice-cold distilled water to lyse the erythrocytes. […] The PMNs were pelleted by centrifugation for 10 min at 400×g and the lysis procedure was repeated. […] All cell suspensions were pooled together, mixed well, and subjected to centrifugation. The PMN were resuspended in TM-s with inactivated complement, and the cell concentration was determined using a hemocytometer. The PMN preparation was stored overnight at 4° C. […] The viability, assessed by trypan blue exclusion, was >98%. Semen was obtained from Dutch A.I. stations. Per experiment, semen was used from a single Yorkshire breeding boar (each experiment a different boar). At the AI-station, the semen was diluted to a concentration of approximately 30×10^6 cells/ml in Beltsville Thawing Solution (BTS) (Johnson et al., 1988). The diluted semen was stored at 17° C. for up to 48 hours, until the diluted semen sample was used. […] Aliquots of 80 μl of the PMN suspension (see, PMN isolation and preparation of PMNs) in TM or TM-s, with either intact or inactivated complement, were transferred to a 96-well polystyrene microtest plate. […] The samples were incubated with gentle swirling on a test plate shaker. […] The heparin facilitates dissociation of agglutinated PMNs. The samples were thoroughly mixed, left for 15 min., and mixed again. […] The frozen-thawed semen was taken from a large stock of semen from one ejaculate and washed 3 times in PBS prior to use. […] The mounts enabled observation and counting of fluorescently labeled spermatozoa inside and outside the phagocytes. By focusing at different levels in the mount, spermatozoa that were located above or below the PMN could be distinguished from those that were phagocytosed. In many PMNs that had ingested a spermatozoon, the presence of the sperm nucleus or tail caused a conspicuous change of the shape of the PMN. Two hundred spermatozoa were evaluated and classified as inside or outside the PMN (i.e., phagocytosed or not phagocytosed). The same fixed mounts were used to assess the acrosome morphology of the non-phagocytosed spermatozoa at the moment of fixation.

[4] = after adding active compound and pre-incubation 30 min. at 38° C.
[5] = blank samples without PMN, (2x), phagocytosis time 30 min.
[6] = blank samples without PMN, preincubated 30 min. at 38° C., phagocytosis time 30 min.

Compound: CCCC(=O)Nc1ncnc2c1ncn2[C@@H]1O[C@@H]2COP(=O)(O)O[C@H]2[C@H]1OC(=O)CCC [Db-cAMP, dibutyryl-cAMP]
- % motile sperm [1]: 60%
- % DAR [2, 4]: 23%
- % LAC [2, 4]: 08%
- % MAR [2, 4]: 02%
- % NAR [2, 4]: 67%
- % LAC [2, 5]: 08%
- % MAR (second value of NAR-MAR-MAR-LAC) [2, 5]: 36%
- % MAR (third value of NAR-MAR-MAR-LAC) [2, 5]: 02%
- % NAR [2, 5]: 54%
- % LAC [2, 6]: 06%
- % MAR (second value of NAR-MAR-MAR-LAC) [2, 6]: 36%
- % MAR (third value of NAR-MAR-MAR-LAC) [2, 6]: 02%
- % NAR [2, 6]: 56%
- % of phagocytosed sperm ([3]; 0.1 mM, phagocytosis time 15 min): 35%
- % of phagocytosed sperm ([3]; 0.1 mM, phagocytosis time 30 min): 59%
- % of phagocytosed sperm ([3]; 0.1 mM, phagocytosis time 60 min): 60%
- % of phagocytosed sperm ([3]; 0.1 mM, phagocytosis time 90 min): 65%
- % of phagocytosed sperm ([3]; 0.2 mM, phagocytosis time 15 min): 47%
- % of phagocytosed sperm ([3]; 0.2 mM, phagocytosis time 30 min): 47%
- % of phagocytosed sperm ([3]; 0.2 mM, phagocytosis time 60 min): 58%
- % of phagocytosed sperm ([3]; 0.2 mM, phagocytosis time 90 min): 54%

Compound: O=C(O)CN(CCN(CC(=O)O)CC(=O)O)CC(=O)O [EDTA]
- phagocytosis of sperm by PMN in vitro, in words [3]: reduce phagocytosis of sperm in vitro

Compound: Nc1ncnc2c1ncn2[C@@H]1O[C@@H]2COP(=O)(O)O[C@H]2[C@H]1O [cAMP, cyclic Adenosine MonoPhosphate]
- phagocytosis of sperm by PMN in vitro, in words [3]: inhibits the phagocytosis of sperm in vitro

Compound: heparin
- phagocytosis of sperm by PMN in vitro, in words [3]: inhibited strongly

— patent US6890708B2, “Method for improving the quality of sperm for artificial insemination of animals” (priority 2000, dated 2005)
